Results published in patent US20160264593A1 (priority 2013, published 2016).
“And” between values parts separate entries of the source, which are not always exact repeats. Identical values can stand only once.

Experiments:
[1] = system: PP2A; experiment: PP2A activity in mouse brains after IP dosing (PP2A immunoprecipitation phosphatase assay, malachite green); type: in vivo, Balb/c mice; set-up: Average Conc. (group of 3 mice): unit not given here; settings: for Average Conc. (group of 3 mice) / Average Relative Activity (group, vehicle = 100) / Conc. (phosphate, single reading, per mouse) / Mean Conc. (per mouse) / Mean Conc. less IgG blank (per mouse) / Relative Conc. (per mouse, to vehicle) / Relative PP2A Activity (per mouse, vehicle = 100): brain
Experimental: (§1) Coomassie (Bradford) Protein Assay Kit (Pierce); PP2A Immunoprecipitation Phosphatase Assay Kit (Millipore); Lysate preparation for low endogenous phosphate: 20 mM imidazole-HCl, 2 mM EDTA, 2 mM EGTA, 1 mM PMSF, 1 mM benzamidine, 10 ug/ml each of aprotinin, leupeptin, antipain, soybean trypsin inhibitor; Normal Mouse IgG (Millipore); Okadaic acid (OA) (Tocris); DMSO (Sigma).
(§2) • Species: Mus Musculus • Strain: Balb/c mice • Age: 6-8 weeks • Sex: female • Body weight: 18-22 g • Vendor: Shanghai Laboratory Animal Center, Shanghai, China; • Number of animals: 66 Balb/c mice plus spare
(§3) The mice were kept in laminar flow rooms at constant temperature and humidity with 4 animals in each cage. • Temperature: 20-25 • Humidity: 40-70%. • Light cycle: 12 hours light and 12 hours dark. • Cages: Made of polycarbonate. The size is 29 cm×17.5 cm×12 cm (L×w×H). The bedding material is wood debris, which is changed once per week. • Diet: Animals had free access to irradiation sterilized dry granule food during the entire study period. • Water: Animals had free access to sterile drinking water. • Cage identification: the identification labels for each cage contained the following information: number of animals, sex, strain, date arrival, treatment, study number, group number, and the starting date of the treatment. • Animal identification: Animals were marked by ear punch.
(§4) All the procedures related to animal handling, care, and the treatment in this study were performed according to guidelines approved by the Institutional Animal Care and Use Committee (IACUC) of WuXi AppTec (Shanghai), following the guidance of the Association for Assessment and Accreditation of Laboratory Animal Care (AAALAC). At the time of routine monitoring, the animals were checked and recorded for any effects of tumor growth on normal behavior such as mobility, food and water consumption (by looking only), body weight gain/loss, eye/hair matting and any other abnormal effect.
(§5) 1. Proper amount of the compounds were weighed. 2. The compounds were dissolved in 4% sterile sodium bicarbonate. 3. All of the compounds should be well dissolved and clear. 4. The compounds should be kept cold once in solution and injected within an hour. 5. The mice were administered intraperitoneally according to their body weights, 20 g mouse was treated with 0.2 ml compound solution. 6. Mice were treated with vehicle and compounds according to Table 1. 7. 3 hours after the dose, 3 mice from each group were euthanized by
(§6) CO2 exposure, and the brains and left lobe of livers were taken and snap-frozen in liquid nitrogen immediately. 6 hours after the dose, the other 3 mice from each group were euthanized by CO2 exposure, and the brains and left lobe of livers were taken and snap-frozen in liquid nitrogen immediately.
(§7) Preparation of malachite green phosphate detection solution Added […] of Solution B to each 1 mL of Solution A, kept at room temperature during use. […] of mixed solution AB is used per assay well.
(§8) Diluted 125 mL Phosphate Standard (Solution C) with 1125 mL of distilled water to make 0.1 mM working solution. The solution was used to prepare a phosphate standard curve as described in the table below.
(§9) 1. 25 μL of each phosphate standards was transferred to wells of microliter plate. 2. Added 100 μL of Malachite Green Solution AB. Mixed carefully without creating bubbles. 3. Cultured for 15 minutes at RT. 4. Measured absorbance at a wavelength between 650 nm in a microliter plate reader.
(§10) 1. Dissolved 1 mg Threonine Phosphopeptide (Catalog #12-219) in 1.10 mL of distilled water to prepare a 1 mM solution. 2. Aliquot peptide solution and stored at ˜20° C. as necessary.
(§11) 1. Mouse brain or liver was homogenized using lysis buffer (25 g/L), centrifuged at 12000 g for 10 minutes at […], and the supernatants were collected. 2. The protein was quantitated, and 240 μg of mouse brain or liver lysate was taken to assay phosphatase activity. 3. […]

[2] = system: PP2A; experiment: PP2A activity in mouse livers after IP dosing (PP2A immunoprecipitation phosphatase assay, malachite green); type: in vivo, Balb/c mice; settings: for Average Conc. (group of 3 mice) / Average Relative Activity (group, vehicle = 100) / Conc. (phosphate, single reading, per mouse) / Mean Conc. (per mouse) / Mean Conc. less IgG blank (per mouse) / Relative Conc. (per mouse, to vehicle) / Relative PP2A Activity (per mouse, vehicle = 100): liver
Experimental: as §1, §2, §3, §4, §5, §6, §7, §8, §9, §10, §11

[3] = high dose IP (mpk: 100 1.5, 113 2.2, 151 1.6, 153 1.7, 157 2.0), 3 h
[4] = high dose IP (mpk: 100 1.5, 113 2.2, 151 1.6, 153 1.7, 157 2.0), 6 h
[5] = low dose IP (mpk: 100 0.75, 113 1.1, 151 0.8, 153 0.85, 157 1.0), 3 h
[6] = low dose IP (mpk: 100 0.75, 113 1.1, 151 0.8, 153 0.85, 157 1.0), 6 h
[7] = high dose IP (mpk: 100 1.5, 113 2.2, 151 1.6, 157 2.0), 3 h
[8] = high dose IP (mpk: 100 1.5, 113 2.2, 151 1.6, 157 2.0), 6 h

CN1CCN(C(=O)C2C(C(=O)OCC(Cl)(Cl)Cl)[C@H]3CC[C@@H]2O3)CC1 (stereo partly shown) [Compound 113]
Average Conc. (group of 3 mice) [1, 3]: 892.56 | Average Relative Activity (group, vehicle = 100) [1, 3]: 60.76 | Conc. (phosphate, single reading, per mouse) [1, 3]: 1058.59 and 1029.91 and 726.72 and 714.92 and 925.07 and 938.33 | Mean Conc. (per mouse) [1, 3]: 1044.25 and 720.82 and 931.70 | Mean Conc. less IgG blank (per mouse) [1, 3]: 1037.88 and 714.45 and 925.33 | Relative Conc. (per mouse, to vehicle) [1, 3]: 0.71 and 0.49 and 0.64 | Relative PP2A Activity (per mouse, vehicle = 100) [1, 3]: 70.65 and 48.63 and 62.99 | Average Conc. (group of 3 mice) [1, 4]: 897.74 | Average Relative Activity (group, vehicle = 100) [1, 4]: 64.36 | Conc. (phosphate, single reading, per mouse) [1, 4]: 366.91 and 317.74 and 1221.50 and 1051.60 and 1382.49 and 1084.37 | Mean Conc. (per mouse) [1, 4]: 342.32 and 1136.55 and 1233.43 | Mean Conc. less IgG blank (per mouse) [1, 4]: 335.96 and 1130.19 and 1227.07 | Relative Conc. (per mouse, to vehicle) [1, 4]: 0.24 and 0.82 and 0.89 | Relative PP2A Activity (per mouse, vehicle = 100) [1, 4]: 24.09 and 81.03 and 87.97 | activity of PP2A in brains (statement) ([1]; high dose IP, 3 h): most potent | Average Conc. (group of 3 mice) [1, 5]: 1540.65 | Average Relative Activity (group, vehicle = 100) [1, 5]: 104.88 | Conc. (phosphate, single reading, per mouse) [1, 5]: 1602.05 and 1620.37 and 1450.70 and 1578.91 and 1521.79 and 1508.30 | Mean Conc. (per mouse) [1, 5]: 1611.21 and 1514.81 and 1515.05 | Mean Conc. less IgG blank (per mouse) [1, 5]: 1604.84 and 1508.44 and 1508.68 | Relative Conc. (per mouse, to vehicle) [1, 5]: 1.10 and 1.04 (2×) | Relative PP2A Activity (per mouse, vehicle = 100) [1, 5]: 109.24 and 102.68 and 102.70 | Average Conc. (group of 3 mice) [1, 6]: 1212.05 | Average Relative Activity (group, vehicle = 100) [1, 6]: 86.90 | Conc. (phosphate, single reading, per mouse) [1, 6]: 1379.36 and 1456.24 and 1108.96 and 1143.66 and 1072.56 and 1149.69 | Mean Conc. (per mouse) [1, 6]: 1417.80 and 1126.31 and 1111.12 | Mean Conc. less IgG blank (per mouse) [1, 6]: 1411.44 and 1119.94 and 1104.76 | Relative Conc. (per mouse, to vehicle) [1, 6]: 1.02 and 0.81 and 0.80 | Relative PP2A Activity (per mouse, vehicle = 100) [1, 6]: 101.19 and 80.29 and 79.21 | Average Conc. (group of 3 mice) [2, 7]: 138.31 | Average Relative Activity (group, vehicle = 100) [2, 7]: 35.3 | Conc. (phosphate, single reading, per mouse) [2, 7]: 200.67 and 204.55 and 192.25 and 216.22 and 155.1 and 163.31 | Mean Conc. (per mouse) [2, 7]: 202.61 and 204.23 and 159.21 | Mean Conc. less IgG blank (per mouse) [2, 7]: 152.24 and 153.86 and 108.83 | Relative Conc. (per mouse, to vehicle) [2, 7]: 0.39 (2×) and 0.28 | Relative PP2A Activity (per mouse, vehicle = 100) [2, 7]: 38.8 and 39.21 and 27.74 | Average Conc. (group of 3 mice) [2, 8]: 104.16 | Average Relative Activity (group, vehicle = 100) [2, 8]: 26.6 | Conc. (phosphate, single reading, per mouse) [2, 8]: 246.88 and 269.98 and 80.17 and 78.45 and 124.87 and 126.82 | Mean Conc. (per mouse) [2, 8]: 258.43 and 79.31 and 125.84 | Mean Conc. less IgG blank (per mouse) [2, 8]: 208.06 and 28.94 and 75.47 | Relative Conc. (per mouse, to vehicle) [2, 8]: 0.53 and 0.07 and 0.19 | Relative PP2A Activity (per mouse, vehicle = 100) [2, 8]: 53.13 and 7.39 and 19.27 | activity of PP2A in livers as compared with vehicle (statement) ([2]; high dose IP, 3 h): significantly inhibited | activity of PP2A in livers as compared with vehicle (statement) ([2]; high dose IP, 6 h post treatment): significantly inhibited | Average Conc. (group of 3 mice) [2, 5]: 179.91 | Average Relative Activity (group, vehicle = 100) [2, 5]: 45.9 | Conc. (phosphate, single reading, per mouse) [2, 5]: 258.54 and 266.31 and 211.9 and 190.3 and 226.36 and 228.31 | Mean Conc. (per mouse) [2, 5]: 262.43 and 201.1 and 227.34 | Mean Conc. less IgG blank (per mouse) [2, 5]: 212.05 and 150.73 and 176.96 | Relative Conc. (per mouse, to vehicle) [2, 5]: 0.54 and 0.38 and 0.45 | Relative PP2A Activity (per mouse, vehicle = 100) [2, 5]: 54.04 and 38.41 and 45.1 | Average Conc. (group of 3 mice) [2, 6]: 212.74 | Average Relative Activity (group, vehicle = 100) [2, 6]: 54.3 | Conc. (phosphate, single reading, per mouse) [2, 6]: 229.82 and 254.44 and 279.7 and 291.58 and 266.31 and 256.81 | Mean Conc. (per mouse) [2, 6]: 242.13 and 285.64 and 261.56 | Mean Conc. less IgG blank (per mouse) [2, 6]: 191.76 and 235.27 and 211.19 | Relative Conc. (per mouse, to vehicle) [2, 6]: 0.49 and 0.6 and 0.54 | Relative PP2A Activity (per mouse, vehicle = 100) [2, 6]: 48.97 and 60.08 and 53.93 | activity of PP2A in livers as compared with vehicle (statement) ([2]; low dose IP, 3 h): significantly inhibited | activity of PP2A in livers as compared with vehicle (statement) ([2]; low dose IP, 6 h): significantly inhibited
